In patent publication US12421224B2 (BIOGEN MA INC., priority 2019, dated 2025):

Each compound was assayed against T1, Recombinant full length human OGA enzyme (Homo sapiens, UniProt O60502) (assay: OGA Enzyme Inhibition Biochemical Assay). Conditions: 1 nM OGA, 100 μM 4-MUGlcNAc (Km), pH 6.4, 90 minutes at room temperature, 10-point dose-response starting from 20 μM.
T1 construct: Recombinant full length human OGA enzyme; purchased Origene
T1 sequence (O60502 1-916): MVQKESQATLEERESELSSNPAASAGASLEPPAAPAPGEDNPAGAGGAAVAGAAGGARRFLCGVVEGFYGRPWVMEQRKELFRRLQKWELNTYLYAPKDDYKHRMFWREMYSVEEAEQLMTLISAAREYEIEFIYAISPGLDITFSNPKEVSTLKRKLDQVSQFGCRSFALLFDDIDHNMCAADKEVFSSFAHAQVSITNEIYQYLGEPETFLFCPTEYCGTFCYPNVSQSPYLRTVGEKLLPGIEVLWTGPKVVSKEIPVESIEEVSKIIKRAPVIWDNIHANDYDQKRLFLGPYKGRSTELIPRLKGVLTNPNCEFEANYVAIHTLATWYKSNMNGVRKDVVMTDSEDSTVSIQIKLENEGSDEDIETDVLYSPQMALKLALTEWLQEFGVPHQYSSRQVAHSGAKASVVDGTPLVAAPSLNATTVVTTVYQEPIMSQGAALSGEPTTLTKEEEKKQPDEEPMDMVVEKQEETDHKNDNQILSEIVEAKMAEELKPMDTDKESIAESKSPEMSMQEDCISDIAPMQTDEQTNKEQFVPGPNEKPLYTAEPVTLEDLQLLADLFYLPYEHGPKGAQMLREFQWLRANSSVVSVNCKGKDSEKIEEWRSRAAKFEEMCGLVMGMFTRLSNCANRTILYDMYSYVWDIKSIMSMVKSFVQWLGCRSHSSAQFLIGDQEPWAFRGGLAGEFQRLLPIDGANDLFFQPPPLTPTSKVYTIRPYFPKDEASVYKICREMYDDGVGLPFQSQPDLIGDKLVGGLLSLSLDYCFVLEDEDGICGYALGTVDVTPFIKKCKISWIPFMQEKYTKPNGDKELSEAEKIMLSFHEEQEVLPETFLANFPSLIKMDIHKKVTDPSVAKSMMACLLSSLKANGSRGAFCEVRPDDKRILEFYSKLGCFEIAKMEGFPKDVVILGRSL
Experimental: OGA Enzyme Inhibition Biochemical Assay
Recombinant full length human OGA enzyme was purchased from Origene. 4-MUGlCNAc substrate was purchased from Sigma. All other reagents were purchased from Sigma or Fisher. Assay buffer consists of the Mcllvaine buffer system, pH 6.4 (0.2M Na2HPO4 mixed with 0.1M citric acid) and 0.01% BSA. Reactions consist of 1 nM OGA, 100 μM 4-MUGlcNAc (Km), and compound in a final volume of 10 μl. Reactions were incubated for 90 minutes at room temperature and quenched with […] of 3M glycine, pH 10 and read on a Perkin Elmer Envision plate reader (Ex: 355 nm/Em: 460 nm). Compounds were tested with a 10-point dose-response starting from 20 μM with a 4-fold dilution. Data was fit using GraphPad Prism using a 4-parameter fit with variable slope.

Compound	IC50 [µM]
CC(=O)Nc1ncc(CN2CC(Oc3ncc(F)cn3)C2)s1 [Example 2-2]	0.53
CC(=O)Nc1ncc(CN2CC(COc3ccc(F)cn3)C2)s1 [Example 2-22, N-(5-((3-(((5-fluoropyridin-2-yl)oxy)methyl)azetidin-1-yl)methyl)thiazol-2-yl)acetamide]	1.5
COc1cc(O[C@H]2CN(Cc3cnc(NC(C)=O)s3)[C@@H]2C)ccn1 [Example 2-7, N-(5-(((2R,3S)-3-((2-methoxypyridin-4-yl)oxy)-2-methylazetidin-1-yl)methyl)thiazol-2-yl)acetamide]	0.21
CC(=O)Nc1ncc(CN2C[C@@H](Nc3ccc(C#N)cn3)[C@H]2C)s1 [Example 2-18, N-(5-(((2R,3R)-3-((5-cyanopyridin-2-yl)amino)-2-methylazetidin-1-yl)methyl)thiazol-2-yl)acetamide]	0.57
COc1cc(COC2CN(Cc3cnc(NC(C)=O)s3)C2)ccn1 [Example 1-1, N-(5-((3-((2-methoxypyridin-4-yl)methoxy)azetidin-1-yl)methyl)thiazol-2-yl)acetamide]	0.091
COc1cc(NCC2CN(Cc3cnc(NC(C)=O)s3)C2)ccn1 [Example 2-25, N-(5-((3-(((2-methoxypyridin-4-yl)amino)methyl)azetidin-1-yl)methyl)thiazol-2-yl)acetamide]	0.61
N-(5-43-(((5-methyl-1,2,4-oxadiazol-3-yl)methyl)amino)azetidin-1-yl)methyl)thiazol-2-yl)acetamide [Example 3-3]	0.9
COc1cc(OC2CN(Cc3cnc(NC(C)=O)s3)C2)ccn1 [Example 2-3, N-(5-((3-((2-methoxypyridin-4-yl)oxy)azetidin-1-yl)methyl)thiazol-2-yl)acetamide]	0.16
CC(=O)Nc1ncc(CN2C[C@@H](Oc3ccc(C#N)cn3)[C@H]2C)s1 [Example 2-31, N-(5-(((2R,3R)-3-((5-cyanopyridin-2-yl)oxy)-2-methylazetidin-1-yl)methyl)thiazol-2-yl)acetamide]	0.44
CC(=O)Nc1ncc(CN2C[C@@H](Oc3ncc(F)cn3)[C@H]2C)s1 [Example 2-29, N-(5-(((2R,3R)-3-((5-fluoropyrimidin-2-yl)oxy)-2-methylazetidin-1-yl)methyl)thiazol-2-yl)acetamide]	0.57

Continued, values first:

IC50 [µM]	Compound
0.58	CC(=O)Nc1ncc(CN2CC(Cc3ccccc3)C2)s1 [Example 4-2, N-(5-((3-benzylazetidin-1-yl)methyl)thiazol-2-yl)acetamide]
0.194	CC(=O)Nc1ncc(CN2CC(c3ncnc4sccc34)C2)s1 [Example 5-2]
